Source: patent US5235061A, “Fungicidal (1H-1,2,4-triazolyl)disilaalkanes” (priority 1991, dated 1993)

Legend:
Test in all cases: In vitro percent disease control (radii of spore growth on agar)
Assay type in all cases: cell-based
Pyricalaria oryzae = details: for inhibition of growth at 50 ppm: read-out: % controlled, Py. or., 50 ppm; for inhibition of growth at 100 ppm: read-out: % controlled, Py. or., 100 ppm
Summary of the method: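 Compounds at 100 ppm and 50 ppm (10% acetone in water) mixed into potato-sucrose-agar, P. oryzae spotted centrally and incubated several days. Percent disease control derived from radii of spore growth.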

Rhizoctonia solani = details: Rhizoctonia solani, read-out: % controlled, Rhy. so.
Summary of the method: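 Test compounds at 100 ppm and 50 ppm (acetone 10% of final volume, then water) were mixed into potato-sucrose-agar, and the fungus was spotted at the dish centre. Dishes were incubated several days in a growth room. Percent disease control was derived from the radii of spore growth.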

Fusarium moniliforme = system: Fusarium moniliforme
Summary of the method: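 Compounds in 10% acetone/water at 100 and 50 ppm were mixed into potato-sucrose-agar, with Fusarium moniliforme spotted centrally. After several days' incubation, percent disease control was derived from radii of spore growth.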

Phytophthora capsisi = details: Phytophthora, read-out: % controlled, Phy ca.
Summary of the method: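 Compounds dissolved in acetone (10% of final volume) then water at 100 ppm and 50 ppm, mixed into potato-sucrose-agar; fungus spotted at plate centre and incubated several days. Percent disease control derived from radii of spore growth.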

Botry tris cinerea = details: read-out: % controlled, Bo ci.
Summary of the method: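 Compounds at 100 and 50 ppm (acetone 10% of final volume, rest water) mixed into potato-sucrose agar; Botrytis cinerea spotted at dish centre. After several days' incubation, percent disease control calculated from radii of spore growth.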

Alternaria mali = details: Alternaria mali, read-out: % controlled, Al.
Summary of the method: (§1)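 Compounds in acetone (10% of final volume) diluted with water to 100 and 50 ppm, then mixed into potato-sucrose-agar with each fungus spotted centrally. Incubated several days in a growth room; percent disease control derived from radii of spore growth.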

Rhizopus sp. = details: Rhizopus, read-out: % controlled, Rhi. sp.
Summary of the method: as §1

[1] = system: Botryosphaeria dothidea Macrophoma sp.; details: Botryosphaeria dothidea, read-out: % controlled, Bo.do (Ma.)
Summary of the method: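 Compounds (100 and 50 ppm, 10% acetone in water) were mixed into potato-sucrose-agar and the fungus was spotted centrally, then incubated several days in a growth room. Percent disease control came from radii of spore growth.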

Physalospora baccae = details: read-out: % controlled, Phy ba.
Summary of the method: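 Compounds at 100 and 50 ppm (10% acetone) mixed into potato-sucrose-agar, fungus spotted centrally and grown several days in a growth room. Percent disease control derived from radii of spore growth.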

Glomerella cingulata = details: Colletotrichum gloeosporioides, read-out: % controlled, Glo.
Summary of the method: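 Compounds were dissolved in acetone (10% of final volume) plus water at 100 ppm and 50 ppm and mixed into potato-sucrose agar. G. cingulata was spotted centrally and incubated for several days in a growth room. Percent disease control was derived from the radii of spore growth.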

| Compound | inhibition of growth at 50 ppm (Pyricalaria oryzae) | inhibition of growth at 100 ppm (Pyricalaria oryzae) | inhibition of growth at 50 ppm (Rhizoctonia solani) | inhibition of growth at 100 ppm (Rhizoctonia solani) | % controlled, Fu. mo. (Fusarium moniliforme; 50 ppm) | % controlled, Fu. mo. (Fusarium moniliforme; 100 ppm) | inhibition of growth at 50 ppm (Phytophthora capsisi) | inhibition of growth at 100 ppm (Phytophthora capsisi) | inhibition of growth at 50 ppm (Botry tris cinerea) | inhibition of growth at 100 ppm (Botry tris cinerea) | inhibition of growth at 50 ppm (Alternaria mali) | inhibition of growth at 100 ppm (Alternaria mali) | inhibition of growth at 50 ppm (Rhizopus sp.) | inhibition of growth at 100 ppm (Rhizopus sp.) | inhibition of growth at 50 ppm [1] | inhibition of growth at 100 ppm [1] | inhibition of growth at 50 ppm (Physalospora baccae) | inhibition of growth at 100 ppm (Physalospora baccae) | inhibition of growth at 50 ppm (Glomerella cingulata) | inhibition of growth at 100 ppm (Glomerella cingulata) |
| --- | --- | --- | --- | --- | --- | --- | --- | --- | --- | --- | --- | --- | --- | --- | --- | --- | --- | --- | --- | --- |
| CCOc1ccc([Si](C)(Cn2cncn2)C[Si](C)(C)c2ccc(F)cc2)cc1 (stereo not shown) [2-(4-ethoxyphenyl)-4-(4-fluorophenyl)-2,4-dimethyl-2,4-disila-1-(1H-1,2,4-triazol-1-yl)pentane] | 64% | 64% | 74% | 89% | 41% | 45% | 9% | 9% | 0% | 0% | 38% | 44% | 29% | 32% | 40% | 46% | 28% | 28% | 67% | 69% |
| C[Si](C)(C[Si](C)(Cn1cncn1)c1ccc(F)cc1)c1ccc(Cl)cc1 (stereo not shown) [4-(4-chlorophenyl)-2-(4-fluorophenyl)-2,4-dimethyl-2,4-disila-1-(1H-1,2,4-triazol-1-yl)pentane] | 100% | 100% | 93% | 100% | 67% | 69% | 43% | 54% | 100% | 100% | 84% | 84% | 59% | 65% | 74% | 86% | 78% | 82% | 0% | 0% |
| C[Si](C)(C[Si](Cn1cncn1)(c1ccc(F)cc1)c1ccc(F)cc1)c1ccc(-c2ccccc2)cc1 [2,2-bis(4-fluorophenyl)-4-(4-phenylphenyl)-4-methyl-2,4-disila-1-(1H-1,2,4-triazol-1-yl)pentane] | 54% | 57% | 65% | 67% | 41% | 41% | 6% | 9% | 18% | 23% | 46% | 46% | 29% | 29% | 47% | 49% | 28% | 32% | 71% | 73% |
| CCOc1ccc([Si](C)(C)C[Si](Cn2cncn2)(c2ccc(F)cc2)c2ccc(Cl)cc2)cc1 (stereo not shown) [2-(4-chlorophenyl)-4-(4-ethoxyphenyl)-2-(4-fluorophenyl)-4-methyl-2,4-disila-1-(1H-1,2,4-triazol-1-yl)pentane] | 100% | 100% | 96% | 96% | 46% | 46% | 23% | 25% | 90% | 90% | 75% | 79% | 50% | 50% | 74% | 79% | 69% | 69% | 87% | 87% |
| C=CC[Si](C)(Cn1cncn1)C[Si](CC=C)(c1ccccc1)c1ccc(-c2ccccc2)cc1 (stereo not shown) [4-methyl-6-phenyl-6-(4-phenylphenyl)-4,6-disila-4-(1H-1,2,4-triazol-1-ylmethyl)-1,8-nonadiene] | 100% | 100% | 80% | 100% | 100% | 100% | 38% | 60% | 77% | 100% | 72% | 100% | 40% | 56% | 100% | 100% | 84% | 100% | 100% | 100% |
| C=CC[Si](C)(Cn1cncn1)C[Si](CC=C)(c1ccccc1)c1ccc(F)cc1 (stereo not shown) [6-(4-fluorophenyl)-4-methyl-6-phenyl-4,6-disila-4-(1H-1,2,4-triazol-1-ylmethyl)-1,8-nonadiene] | 90% | 90% | 96% | 96% | 60% | 66% | 65% | 70% | 60% | 70% | 55% | 92% | 50% | 50% | 79% | 79% | 82% | 82% | 80% | 85% |
| C=CC[Si](C)(Cn1cncn1)C[Si](CC=C)(c1ccccc1)c1ccccc1 (stereo not shown) [6,6-diphenyl-4-methyl-4,6-disila-4-(1H-1,2,4-triazol-1-ylmethyl)-1,8-nonadiene] | 100% | 100% | 80% | 100% | 60% | 100% | 33% | 40% | 77% | 100% | 72% | 89% | 50% | 100% | 80% | 100% | 84% | 100% | 89% | 100% |
| C=CC[Si](C)(Cn1cncn1)C[Si](CC=C)(CC=C)CC=C (stereo not shown) [4-methyl-6-bis(2-propenyl)-4,6-disila-4-(1H-1,2,4-triazol-1-ylmethyl)-1,8-nonadiene] | 100% | 100% | 96% | 96% | 46% | 65% | 45% | 50% | 60% | 80% | 75% | 95% | 60% | 80% | 70% | 75% | 80% | 85% | 82% | 87% |
